In US20220289685A1, “ANTIMALARIAL HEXAHYDROPYRIMIDINE ANALOGUES” (UCB BIOPHARMA SRL, priority 2019, published 2022):
Where a name gives a salt, the structure may show the parent alone.

system: Plasmodium falciparum 3D7 strain; assay: P. falciparum 3D7 asexual blood stage assay (SYBR green readout); format: cell-based; settings: Plasmodium falciparum, 3D7, Erythrocyte, 72 h
Protocol: Asexual Blood Stage Assay
The assay used to measure the effect of test compounds on a bloodstream stage of Plasmodium falciparum: 3D7 strain employs SYBR green as the readout. This is a dye that binds to double stranded deoxyribonucleic acid (DNA) with a resulting increase in fluorescence, allowing detection of P. falciparum DNA in infected erythrocytes, and thereby providing a measure of parasite growth and propagation.
P. falciparum Culture Maintenance
Erythrocytes (A+ blood) were prepared for both parasite culture and assay by washing 4 times with incomplete media (15.9 g RPMI 1640 (25 mM HEPES, L-glutamine), 1 g NaHCO3, 2 g glucose, 400 μL gentacin (500 mg/mL), 2 mL hypoxanthine solution (13.6 g/L in 0.1M NaOH pH 7.3) in 1 litre of media). The cells were centrifuged at 1800 g for 5 minutes, before decanting the supernatant and re-suspending in fresh incomplete media. On the final wash, the cells were re-suspended in complete media (incomplete media with 5 g/L AlbumaxII), and centrifuged at 1800 g for 3 minutes. This cell sediment was treated as 100% haematocrit.
P. falciparum 3D7 was cultured in erythrocytes at 5% haematocrit in complete media at 37° C. (1% O2, 3% CO2, balance N2). Cultures were split on a weekly basis to achieve a 1% parasitaemia in erythrocites at 5% haematocrit in fresh media. Culture media is replaced by fresh media every other day (2 times during the week).
On day 1, test compounds were added to assay plates using Echo dispensing technology ([…] and 20 points titration). 50 nL of each compound dilution was added to 50 μL of culture (5% haematocrit, 0.5% parasitaemia) and incubated for 72 h at 37° C. (1% O2, 3% CO2, balance N2). Final concentrations of test compounds ranged from 50,000 nM to 15 nM, in […].
On day 4, 10 μL SYBR green (Invitrogen S7563 supplied as 10,000× concentrate in DMSO) pre-diluted to 3× concentrate with Lysis buffer (20 mM Tris pH 7.9, 5% EDTA, 0.16% w/v, 1.6% TX100 v/v) was added to the cultures and incubated in the dark, overnight, at room temperature.
On day 5, fluorescent signal was measured using a BioTek plate reader (excitation 485 nm, emission 528 nm). All data were processed using IDBS ActivityBase. Raw data were converted into percent inhibition through linear regression by setting the high inhibition control (mefloquine) as 100% and the no inhibition control (DMSO) as 0%. Quality control criteria for passing plates were as follows: Z′>0.5, S:B>3, 30% CV(no inhibition control)<15. The formula used to calculate Z′ is: […]
All EC50 curve fitting was undertaken using the following bi-phasic two site dose response using XLfit model 300 (IDBS):
where A=100 minus the top of the upper curve 1 and the bottom of lower curve; B=Hill slope; log(C)=IC50 concentration at lower site; log(D)=IC50 concentration at upper site; x=inhibitor concentration; and y=% inhibition.

**Q.** `C[C@@H]1C[C@H](N2C(=N)N[C@](C)(c3cccc(NC(=O)c4nnc5ccccn45)c3Cl)CC2=O)CCO1` (relative stereo) [Example 62, N-(2-Chloro-3-{(4S)-2-imino-4-methyl-1-[(2R*,4R*)-2-methyl-tetrahydropyran-4-yl]-6-oxo-hexahydropyrimidin-4-yl]phenyl)-[1,2,4]triazolo[4,3-a]pyridine-3-carboxamide hydrochloride] was tested. Which IC50 did it give?
**A.** 23 nM

**Q.** Which IC50 does the source give for `C[C@@H]1CC(N2C(=N)N[C@](C)(c3cccc(NC(=O)c4cccn5nnnc45)c3Cl)CC2=O)CCO1` (relative stereo) [Example 29, N-(2-Chloro-3-{(4S)-2-imino-4-methyl-1-[(2R*,4R*)-2-methyl-tetrahydropyran-4-yl]-6-oxo-hexahydropyrimidin-4-yl}phenyl)-tetrazolo[1,5-a] pyridine-8-carboxamide trifluoroacetic acid salt] here?
**A.** 23 nM

**Q.** `C[C@@H]1C[C@H](N2C(=N)N[C@](C)(c3cccc(NC(=O)c4ccncc4)c3Cl)CC2=O)CCO1` (relative stereo) [Example 5, N-(2-Chloro-3-{(4S)-2-imino-4-methyl-1-[(2R*,4R*)-2-methyl-tetrahydropyran-4-yl]-6-oxo-hexahydropyrimidin-4-yl]phenyl)-pyridine-4-carboxamide hydrochloride] was tested. Which IC50 did it give?
**A.** 285 nM

**Q.** For `C[C@@H]1C[C@H](N2C(=N)N[C@](C)(c3cccc(NC(=O)c4cncc(C(F)(F)F)c4)c3Cl)CC2=O)CCO1` (relative stereo) [Example 70, N-(2-Chloro-3-{(4S)-2-imino-4-methyl-1-[(2R*,4R*)-2-methyl-tetrahydropyran-4-yl]-6-oxo-hexahydropyrimidin-4-yl}phenyl)-5-(trifluoromethyl)pyridine-3-carboxamide hydrochloride], which IC50 is on record?
**A.** 36 nM

**Q.** For `C[C@@H]1C[C@H](N2C(=N)N[C@](C)(c3cccc(NC(=O)c4cccc(Cl)c4F)c3Cl)CC2=O)CCO1` (relative stereo) [Example 97, 3-Chloro-N-(2-chloro-3-{(4S)-2-imino-4-methyl-1-[(2R* ,4R*)-2-methyltetrahydropyran-4-yl]-6-oxo-hexahydropyrimidin-4-yl]phenyl)-2-fluorobenzamide hydrochloride], which IC50 is on record?
**A.** 21 nM

**Q.** With `C[C@@H]1C[C@H](N2C(=N)N[C@](C)(c3cccc(NC(=O)c4ccc(C(F)(F)F)nn4)c3Cl)CC2=O)CCO1` (relative stereo) [Example 59, N-(2-Chloro-3-{(4S)-2-imino-4-methyl-1-[(2R*,4R*)-2-methyl-tetrahydropyran-4-yl]-6-oxo-hexahydropyrimidin-4-yl]phenyl)-6-(trifluoromethyl)pyridazine-3-carboxamide hydrochloride] as the compound, how does the IC50 read?
**A.** 114 nM

**Q.** How did the IC50 turn out when `C[C@@H]1C[C@H](N2C(=N)N[C@](C)(c3cccc(NC(=O)c4ccc(C5CC5)nc4)c3Cl)CC2=O)CCO1` (relative stereo) [Example 53, N-(2-Chloro-3-{(4S)-2-imino-4-methyl-1-[(2R*,4R*)-2-methyl-tetrahydropyran-4-yl]-6-oxo-hexahydropyrimidin-4-yl}phenyl)-6-cyclopropylpyridine-3-carboxamide hydrochloride] was run?
**A.** 630 nM

**Q.** With `C[C@@H]1C[C@H](N2C(=N)NC(C)(c3cccc(NC(=O)c4ccc(Cl)cc4F)c3Cl)CC2=O)CCO1` (relative stereo) [Example 67, 4-Chloro-N-(2-chloro-3-{(4S)-2-imino-4-methyl-1-[(2R*,4R*)-2-methyltetrahydropyran-4-yl]-6-oxo-hexahydropyrimidin-4-yl}phenyl)-2-fluorobenzamide hydrochloride] as the compound, how does the IC50 read?
**A.** 26 nM

**Q.** With `C[C@@H]1C[C@H](N2C(=N)N[C@](C)(c3cccc(NC(=O)c4ccc(OCC(F)(F)F)nc4)c3Cl)CC2=O)CCO1` (relative stereo) [Example 58, N-(2-Chloro-3-{(4S)-2-imino-4-methyl-1-[(2R*,4R*)-2-methyl-tetrahydropyran-4-yl]-6-oxo-hexahydropyrimidin-4-yl]phenyl)-6-(2,2,2-trifluoroethoxy)pyridine-3-carboxamide hydrochloride] as the compound, how does the IC50 read?
**A.** 438 nM

**Q.** For `C[C@@H]1C[C@H](N2C(=N)N[C@](C)(c3cccc(NC(=O)c4ncccc4C(F)(F)F)c3Cl)CC2=O)CCO1` (relative stereo) [Example 49, N-(2-Chloro-3-{(4S)-2-imino-4-methyl-1-[(2R*,4R*)-2-methyl-tetrahydropyran-4-yl]-6-oxo-hexahydropyrimidin-4-yl]phenyl)-3-(trifluoromethyl)pyridine-2-carboxamide trifluoroacetic acid salt], which IC50 is on record?
**A.** 17 nM

**Q.** `C[C@@H]1C[C@H](N2C(=N)N[C@](C)(c3cccc(NC(=O)c4cc5ccccc5nn4)c3Cl)CC2=O)CCO1` (relative stereo) [Example 46, N-(2-Chloro-3-{(4S)-2-imino-4-methyl-1-[(2R*,4R*)-2-methyl-tetrahydropyran-4-yl]-6-oxo-hexahydropyrimidin-4-yl]phenyl)-cinnoline-3-carboxamide trifluoroacetic acid salt] was tested. Which IC50 did it give?
**A.** 41 nM

**Q.** How did the IC50 turn out when `Cc1nccc(C(F)(F)F)c1C(=O)Nc1cccc([C@]2(C)CC(=O)N([C@@H]3CCO[C@H](C)C3)C(=N)N2)c1Cl` (relative stereo) [Example 111, N-(2-Chloro-3-{(4S)-2-imino-4-methyl-1-[(2R*,4R*)-2-methyl-tetrahydropyran-4-yl]-6-oxo-hexahydropyrimidin-4-yl}phenyl)-2-methyl-4-(trifluoromethyl)-pyridine-3-carboxamide hydrochloride] was run?
**A.** 418 nM

**Q.** For `COc1cncc(C(=O)Nc2cccc([C@]3(C)CC(=O)N([C@@H]4CCO[C@H](C)C4)C(=N)N3)c2Cl)n1` (relative stereo) [Example 68, N-(2-Chloro-3-{(4S)-2-imino-4-methyl-1-[(2R*,4R*)-2-methyl-tetrahydropyran-4-yl]-6-oxo-hexahydropyrimidin-4-yl}phenyl)-6-methoxypyrazine-2-carboxamide hydrochloride], which IC50 is on record?
**A.** 11 nM

**Q.** Which IC50 does the source give for `C[C@@H]1C[C@H](N2C(=N)N[C@](C)(c3cccc(NC(=O)c4nc5ccccc5nc4C(F)(F)F)c3Cl)CC2=O)CCO1` (relative stereo) [Example 88, N-(2-Chloro-3-{(4S)-2-imino-4-methyl-1-[(2R*,4R*)-2-methyl-tetrahydropyran-4-yl]-6-oxo-hexahydropyrimidin-4-yl]phenyl)-3-(trifluoromethyl)quinoxaline-2-carboxamide trifluoroacetic acid salt] here?
**A.** 46 nM

**Q.** How did the IC50 turn out when `C[C@@H]1C[C@H](N2C(=N)N[C@](C)(c3cccc(NC(=O)c4ccnn4C)c3Cl)CC2=O)CCO1` (relative stereo) [Example 51, N-(2-Chloro-3-{(4S)-2-imino-4-methyl-1-[(2R*,4R*)-2-methyl-tetrahydropyran-4-yl]-6-oxo-hexahydropyrimidin-4-yl}phenyl)-2-methylpyrazole-3-carboxamide trifluoroacetic acid salt] was run?
**A.** 59 nM

**Q.** `C[C@@H]1C[C@H](N2C(=N)N[C@](C)(c3cccc(NC(=O)c4cccc(C#N)n4)c3Cl)CC2=O)CCO1` (relative stereo) [Example 72, N-(2-Chloro-3-{(4S)-2-imino-4-methyl-1-[(2R*,4R*)-2-methyl-tetrahydropyran-4-yl]-6-oxo-hexahydropyrimidin-4-yl}phenyl)-6-cyanopyridine-2-carboxamide hydrochloride] was tested. Which IC50 did it give?
**A.** 14 nM

**Q.** `C[C@@H]1C[C@H](N2C(=N)N[C@](C)(c3cccc(NC(=O)c4cc(C(F)(F)F)cnn4)c3Cl)CC2=O)CCO1` (relative stereo) [Example 55, N-(2-Chloro-3-{(4S)-2-imino-4-methyl-1-[(2R*,4R*)-2-methyl-tetrahydropyran-4-yl]-6-oxo-hexahydropyrimidin-4-yl}phenyl)-5-(trifluoromethyl)pyridazine-3-carboxamide hydrochloride] was tested. Which IC50 did it give?
**A.** 53 nM

same assay, conditions: Plasmodium falciparum, Erythrocyte; P. falciparum 3D7 in human erythrocytes, 72 h incubation, SYBR green fluorescence; read-out: IC50

**Q.** Which IC50 does the source give for `C[C@@H]1C[C@H](N2C(=N)N[C@](C)(c3cccc(NC(=O)c4ncn5ccccc45)c3Cl)CC2=O)CCO1` (relative stereo) [Example 60, N-(2-Chloro-3-{(4S)-2-imino-4-methyl-1-[(2,R*,4R*)-2-methyl-tetrahydropyran-4-yl]-6-oxo-hexahydropyrimidin-4-yl}phenyl)-imidazo[1,5-a]pyridine-1-carboxamide hydrochloride] here?
**A.** 122 nM
